Data from patent US20260297080A1, “BICYCLIC COMPOUNDS AS CDK INHIBITORS” (BeOne Medicines I GmbH, priority 2022, published 2026).

How the values were obtained:
CDK2/Cyclin E1 = CDK2/Cyclin E1 (Homo sapiens, UniProt P24941); assay: CDK2/Cyclin E1 Biochemical Assay (TR-FRET), 0.060 mM ATP; settings: 0.15 μM Rb (Ser780)-biotin substrate, pH7.0, 60 min preincubation, 120 min reaction, room temperature
Experimental: (§1) CDK2/Cyclin E1 and CDK1/Cyclin B1 Biochemical Assays
(§2) Compounds disclosed herein were tested for inhibition of CDK2/Cyclin E1 or CDK1/Cyclin B1 kinase in an assay based on the time-resolved fluorescence-resonance energy transfer (TR-FRET) methodology. The assay was carried out in 384-well low volume black plates in a reaction mixture containing CDK2/Cyclin E1 or CDK1/Cyclin B1, 0.060 mM ATP for CDK2/Cyclin E1 or 0.015 mM ATP for CDK1/Cyclin B1, 0.15 μM Rb (Ser780)-biotin substrate and 0-10 μM compound in buffer containing 50 mM HEPES pH7.0, 0.02% NaN3, 0.01% BSA, 0.1 mM Orthovanadate, 50 mM MgCl2, 1 mM DTT and 0.005% Tween-20. The kinase was incubated with compound for 60 minutes at room temperature and the reaction was initiated by the addition of ATP and Rb (Ser780)-biotin substrate. After reaction at room temperature for 120 minutes, an equal volume of stop/detection solution was added according to the manufacture's instruction (Cisbio Bioassays). The stop/detection solution contained Streptavidin-XL665 and Anti-pRb (Ser780) mAb-Eu Cryptate in Detection buffer (Cisbio Bioassays). Plates were incubated at room temperature for 60 minutes, and the TR-FRET signals (ex337 nm, em665 nm/620 nm) were recorded on a PHERAstar FSX plate reader (BMG Labtech). The inhibition percentage of CDK2/Cyclin E1 or CDK1/Cyclin B1 kinase activity in presence of increasing concentrations of compounds was calculated based on the ratio of fluorescence at 665 nm to that at 620 nm. The IC50 for each compound was derived from fitting the data to the four-parameter logistic equation by Dotmatics.

CDK1/Cyclin B1 = CDK1/Cyclin B1 (Homo sapiens, UniProt P06493); assay: CDK1/Cyclin B1 Biochemical Assay (TR-FRET), 0.015 mM ATP; settings: 0.15 μM Rb (Ser780)-biotin substrate, pH7.0, 60 min preincubation, 120 min reaction, room temperature
Chain of CDK1/Cyclin B1 (P06493 whole entry): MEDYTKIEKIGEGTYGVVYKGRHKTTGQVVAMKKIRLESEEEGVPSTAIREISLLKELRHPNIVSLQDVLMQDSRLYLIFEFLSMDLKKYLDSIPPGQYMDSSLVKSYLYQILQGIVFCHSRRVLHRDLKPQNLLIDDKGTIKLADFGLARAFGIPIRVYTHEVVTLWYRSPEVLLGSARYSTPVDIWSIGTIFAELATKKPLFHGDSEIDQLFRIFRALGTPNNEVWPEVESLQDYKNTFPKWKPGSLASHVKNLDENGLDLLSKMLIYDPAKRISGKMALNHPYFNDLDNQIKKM
Chain of CDK1/Cyclin B1 (P14635 whole entry partner): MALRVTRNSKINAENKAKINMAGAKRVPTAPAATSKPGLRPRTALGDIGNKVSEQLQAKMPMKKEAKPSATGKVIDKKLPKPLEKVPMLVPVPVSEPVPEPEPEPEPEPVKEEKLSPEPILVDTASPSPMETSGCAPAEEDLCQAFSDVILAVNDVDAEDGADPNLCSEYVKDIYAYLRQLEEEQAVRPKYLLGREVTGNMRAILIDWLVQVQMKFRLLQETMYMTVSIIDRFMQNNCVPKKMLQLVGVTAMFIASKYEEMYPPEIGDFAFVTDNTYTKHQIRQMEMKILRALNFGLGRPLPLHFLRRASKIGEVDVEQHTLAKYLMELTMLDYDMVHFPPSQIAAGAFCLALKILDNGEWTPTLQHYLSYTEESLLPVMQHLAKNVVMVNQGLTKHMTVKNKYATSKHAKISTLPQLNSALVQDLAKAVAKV
Experimental: as §1, §2

| Compound | IC50 (CDK2/Cyclin E1) [nM] | IC50 (CDK1/Cyclin B1) [nM] |
| --- | --- | --- |
| CC(C)NC(=O)O[C@H]1CC[C@@H](c2cc(Nc3ccc4c(c3)CNS4(=O)=O)n[nH]2)C1 (relative stereo) [Example 2, cis-3-(3-((1,1-dioxido-2,3-dihydrobenzo[d]isothiazol-5-yl)amino)-1H-pyrazol-5-yl)cyclopentyl isopropylcarbamate] | 0.9 | 36.1 |
| CC(C)NC(=O)O[C@H]1CC[C@@H](c2cc(Nc3ccc4c(c3)S(=O)(=O)NC4)n[nH]2)C1 (relative stereo) [Example 3, cis-3-(3-((1,1-dioxido-2,3-dihydrobenzo[d]isothiazol-6-yl)amino)-1H-pyrazol-5-yl)cyclopentyl isopropylcarbamate] | 1.2 | 29 |
| CC(C)NC(=O)O[C@H]1CC[C@@H](c2cc(Nc3ccc4c(c3)S(=O)(=O)NC4(C)C)n[nH]2)C1 (relative stereo) [Example 4, cis-3-(5-((3,3-dimethyl-1,1-dioxido-2,3-dihydrobenzo[d]isothiazol-6-yl)amino)-1H-pyrazol-3-yl)cyclopentyl isopropylcarbamate] | 8.6 | 184 |
| CC(C)NC(=O)O[C@H]1CC[C@@H](c2cc(Nc3ccc4c(c3)C(C)(C)NS4(=O)=O)n[nH]2)C1 (relative stereo) [Example 6, cis-3-(3-((3,3-dimethyl-1,1-dioxido-2,3-dihydrobenzo[d]isothiazol-5-yl)amino)-1H-pyrazol-5-yl)cyclopentyl isopropylcarbamate] | 6.5 | 108 |
| CC(C)NC(=O)O[C@H]1CC[C@@H](c2cc(Nc3cc4c(cc3F)C(C)(C)NS4(=O)=O)n[nH]2)C1 (relative stereo) [Example 8, cis-3-(3-((5-fluoro-3,3-dimethyl-1,1-dioxido-2,3-dihydrobenzo[d]isothiazol-6-yl)amino)-1H-pyrazol-5-yl)cyclopentyl isopropylcarbamate] | 121 | 1540 |
| COc1c(Nc2cc([C@@H]3CC[C@H](OC(=O)NC(C)C)C3)[nH]n2)ccc2c1CNS2(=O)=O (relative stereo) [Example 10, cis-3-(3-((4-methoxy-1,1-dioxido-2,3-dihydrobenzo[d]isothiazol-5-yl)amino)-1H-pyrazol-5-yl)cyclopentyl isopropylcarbamate] | 102 | 3020 |
| CC(C)NC(=O)O[C@H]1CC[C@@H](c2cc(Nc3ccc4c(c3)CN(C)S4(=O)=O)n[nH]2)C1 (relative stereo) [Example 11, cis-3-(3-((2-methyl-1,1-dioxido-2,3-dihydrobenzo[d]isothiazol-5-yl)amino)-1H-pyrazol-5-yl)cyclopentyl isopropylcarbamate] | 4.1 | 140 |
| CC(C)NC(=O)O[C@H]1CC[C@@H](c2cc(Nc3ccc4c(c3F)S(=O)(=O)NC4(C)C)n[nH]2)C1 (relative stereo) [Example 13, cis-3-(3-((7-fluoro-3,3-dimethyl-1,1-dioxido-2,3-dihydrobenzo[d]isothiazol-6-yl)amino)-1H-pyrazol-5-yl)cyclopentyl isopropylcarbamate] | 21 | 563 |
| CC(C)NC(=O)O[C@H]1CC[C@@H](c2cc(Nc3cc4c(cc3F)S(=O)(=O)NC4(C)C)n[nH]2)C1 (relative stereo) [Example 14, cis-3-(3-((6-fluoro-3,3-dimethyl-1,1-dioxido-2,3-dihydrobenzo[d]isothiazol-5-yl)amino)-1H-pyrazol-5-yl)cyclopentyl isopropylcarbamate] | 30 | 1090 |

Results, then the compound that gave them:

| IC50 (CDK2/Cyclin E1) [nM] | IC50 (CDK1/Cyclin B1) [nM] | Compound |
| --- | --- | --- |
| 23 | 1070 | COc1cc2c(cc1Nc1cc([C@@H]3CC[C@H](OC(=O)NC(C)C)C3)[nH]n1)CNS2(=O)=O (relative stereo) [Example 15, cis-3-(3-((6-methoxy-1,1-dioxido-2,3-dihydrobenzo[d]isothiazol-5-yl)amino)-1H-pyrazol-5-yl)cyclopentyl isopropylcarbamate] |
| 18 | 385 | CC(C)NC(=O)O[C@H]1CC[C@@H](c2cc(Nc3ccc4c(c3)S(=O)(=O)NC4=O)n[nH]2)C1 (relative stereo) [Example 16, cis-3-(3-((1,1-dioxido-3-oxo-2,3-dihydrobenzo[d]isothiazol-6-yl)amino)-1H-pyrazol-5-yl)cyclopentyl isopropylcarbamate] |
| 11.8 | 470 | CC(C)NC(=O)O[C@H]1CC[C@@H](c2cc(Nc3ccc4c(c3)C(=O)NS4(=O)=O)n[nH]2)C1 (relative stereo) [Example 17, cis-3-(3-((1,1-dioxido-3-oxo-2,3-dihydrobenzo[d]isothiazol-5-yl)amino)-1H-pyrazol-5-yl)cyclopentyl isopropylcarbamate] |
| 21.5 | 422 | CC(C)NC(=O)O[C@H]1CC[C@@H](c2cc(Nc3ccc4c(c3)CN(c3ccc5c(c3)CNS5(=O)=O)S4(=O)=O)n[nH]2)C1 (relative stereo) [Example 18, cis-3-(3-((1,1,1′,1′-tetraoxido-2′,3′-dihydro-3H-[2,5′-bibenzo[d]isothiazol]-5-yl)amino)-1H-pyrazol-5-yl)cyclopentyl isopropylcarbamate] |
| 305 | 1070 | CC(C)NC(=O)N[C@H]1CC[C@@H](c2cc(Nc3ccc4c(c3)CNS4(=O)=O)n[nH]2)C1 (relative stereo) [Example 19, cis-1-(3-(3-((1,1-dioxido-2,3-dihydrobenzo[d]isothiazol-5-yl)amino)-1H-pyrazol-5-yl)cyclopentyl)-3-isopropylurea] |
| 931 | > 10000 | CC(C)NC(=O)O[C@H]1CC[C@@H](c2cc(Nc3cc4c(cc3C(F)(F)F)S(=O)(=O)NC4)n[nH]2)C1 (relative stereo) [Example 20, cis-3-(3-((1,1-dioxido-6-(trifluoromethyl)-2,3-dihydrobenzo[d]isothiazol-5-yl)amino)-1H-pyrazol-5-yl)cyclopentyl isopropylcarbamate] |
| > 10000 | > 10000 | CC(C)NC(=O)O[C@H]1CC[C@@H](c2cc(Nc3cc4c(cc3C(F)(F)F)S(=O)(=O)NC4(C)C)n[nH]2)C1 (relative stereo) [Example 21, cis-3-(3-((3,3-dimethyl-1,1-dioxido-6-(trifluoromethyl)-2,3-dihydrobenzo[d]isothiazol-5-yl)amino)-1H-pyrazol-5-yl)cyclopentyl isopropylcarbamate] |
| 202 | > 10000 | CC(C)NC(=O)O[C@H]1CC[C@@H](c2cc(Nc3ccc4c(c3C(F)(F)F)CNS4(=O)=O)n[nH]2)C1 (relative stereo) [Example 22, cis-3-(3-((1,1-dioxido-4-(trifluoromethyl)-2,3-dihydrobenzo[d]isothiazol-5-yl)amino)-1H-pyrazol-5-yl)cyclopentyl isopropylcarbamate] |
| 244 | 1170 | COc1cc2c(cc1Nc1cc([C@@H]3CC[C@H](OC(=O)NC(C)C)C3)[nH]n1)C(C)(C)NS2(=O)=O (relative stereo) [Example 23, cis-3-(3-((6-methoxy-3,3-dimethyl-1,1-dioxido-2,3-dihydrobenzo[d]isothiazol-5-yl)amino)-1H-pyrazol-5-yl)cyclopentyl isopropylcarbamate] |
| 887 | 9960 | COc1c(Nc2cc([C@@H]3CC[C@H](OC(=O)NC(C)C)C3)[nH]n2)ccc2c1C(C)(C)NS2(=O)=O (relative stereo) [Example 24, cis-3-(3-((4-methoxy-3,3-dimethyl-1,1-dioxido-2,3-dihydrobenzo[d]isothiazol-5-yl)amino)-1H-pyrazol-5-yl)cyclopentyl isopropylcarbamate] |
| 11 | 271 | Cc1cc2c(cc1Nc1cc([C@@H]3CC[C@H](OC(=O)NC(C)C)C3)[nH]n1)CNS2(=O)=O (relative stereo) [Example 25, cis-3-(3-((6-methyl-1,1-dioxido-2,3-dihydrobenzo[d]isothiazol-5-yl)amino)-1H-pyrazol-5-yl)cyclopentyl isopropylcarbamate] |
| 2 | 60 | Cc1cc(Nc2cc([C@@H]3CC[C@H](OC(=O)NC(C)C)C3)[nH]n2)cc2c1S(=O)(=O)NC2 (relative stereo) [Example 26, cis-3-(3-((7-methyl-1,1-dioxido-2,3-dihydrobenzo[d]isothiazol-5-yl)amino)-1H-pyrazol-5-yl)cyclopentyl isopropylcarbamate] |
| 33 | 958 | CC(C)NC(=O)O[C@H]1CC[C@@H](c2cc(Nc3cc4c(cc3Cl)S(=O)(=O)NC4)n[nH]2)C1 (relative stereo) [Example 27, cis-3-(3-((6-chloro-1,1-dioxido-2,3-dihydrobenzo[d]isothiazol-5-yl)amino)-1H-pyrazol-5-yl)cyclopentyl isopropylcarbamate] |
